From patent US9434725B2, “5-azaindazole compounds and methods of use” (priority 2012, dated 2016)
pKi: −log10 of the molar value. Counter-ions that a name gives are not always drawn.

How the values were obtained:
Assay type in all cases: biochemical
[1] = target: PIM1 (Homo sapiens (Human), UniProt P11309); assay: biochemical; conditions: 10 μM ATP, 90 min, room temperature; read-out: PIM1 LC3K (KI)
Outline: (§1)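 Read-out is microfluidic electrophoretic separation of phosphorylated from unphosphorylated fluorescent Pim peptide, with Ki calculated from conversion. Reactions ran 90 min at room temperature in HEPES pH 7.2 containing MgCl2, Tween 20 and DTT, ended by EDTA-containing buffer.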

[2] = target: PIM3 (Homo sapiens (Human), UniProt Q86V86); assay: Pim kinase binding activity, Caliper LC3000 microfluidic peptide phosphorylation assay, PIM3; conditions: 10 μM ATP, 90 min, room temperature; read-out: PIM3 LC3K (KI)
Outline: as §1

[3] = target: PIM2 (Homo sapiens (Human), UniProt Q9P1W9); assay: Pim kinase binding activity, Caliper LC3000 microfluidic peptide phosphorylation assay, PIM2; conditions: 10 μM ATP, 90 min, room temperature; read-out: PIM2 LC3K (KI)
Sequence of PIM2 (Q9P1W9 whole entry): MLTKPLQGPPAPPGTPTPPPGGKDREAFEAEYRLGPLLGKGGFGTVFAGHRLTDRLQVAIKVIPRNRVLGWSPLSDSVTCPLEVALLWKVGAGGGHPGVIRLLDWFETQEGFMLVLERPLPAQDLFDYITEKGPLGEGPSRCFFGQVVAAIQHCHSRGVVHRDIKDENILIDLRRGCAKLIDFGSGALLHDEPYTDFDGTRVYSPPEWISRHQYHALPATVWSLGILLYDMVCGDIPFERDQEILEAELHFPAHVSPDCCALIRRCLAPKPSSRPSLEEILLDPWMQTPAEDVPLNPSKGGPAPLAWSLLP
Outline: as §1

Sequence of PIM1 (P11309 whole entry): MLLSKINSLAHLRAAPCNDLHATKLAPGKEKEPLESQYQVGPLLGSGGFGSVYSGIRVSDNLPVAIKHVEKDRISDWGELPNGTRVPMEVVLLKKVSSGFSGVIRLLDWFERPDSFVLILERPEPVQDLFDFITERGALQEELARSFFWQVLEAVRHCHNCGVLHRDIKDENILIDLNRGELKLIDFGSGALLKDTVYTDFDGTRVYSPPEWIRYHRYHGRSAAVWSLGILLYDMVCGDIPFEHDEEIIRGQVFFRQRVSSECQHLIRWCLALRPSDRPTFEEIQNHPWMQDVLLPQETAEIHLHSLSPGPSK

SMILES	pKi [1]	pKi [2]	pKi [3]
Cc1cncc(-c2cc3c(cn2)cnn3-c2ccc(C)c(N3CCC[C@H](N)C3=O)n2)n1 [Compound 245, (3S)-3-amino-1-[3-methyl-6-[6-(6-methylpyrazin-2-yl)pyrazolo[4,3-c]pyridin-1-yl]-2-pyridyl]piperidin-2-one]	8.25	8.67	7.28
C[C@]1(O)CNCCN(c2cccc(-n3ncc4cnc(-c5cnn(CC(F)(F)F)c5)cc43)n2)C1 [Compound 248, (S)-6-Methyl-1-(6-(6-(1-(2,2,2-trifluoroethyl)-1H-pyrazol-4-yl)-1H-pyrazolo[4,3-c]-pyridin-1-yl)pyridin-2-yl)-1,4-diazepan-6-ol]	8.79	8.47	7.66
C[C@@]1(O)CNCCN(c2cccc(-n3ncc4cnc(-c5cnn(CC(F)(F)F)c5)cc43)n2)C1 [Compound 249, (R)-6-Methyl-1-(6-(6-(1-(2,2,2-trifluoroethyl)-1H-pyrazol-4-yl)-1H-pyrazolo[4,3-c]-pyridin-1-yl)pyridin-2-yl)-1,4-diazepan-6-ol]	8.67	8.51	7.77
Cc1cncc(-c2cc3c(cn2)cnn3-c2cc(C3COC3)cc(N3CCC[C@H](N)C3)n2)n1 [Compound 250, (S)-1-(6-(6-(6-methylpyrazin-2-yl)-1H-pyrazolo[4,3-c]pyridin-1-yl)-4-(oxetan-3-yl)pyridin-2-yl)piperidin-3-amine]	8.41	9.13	7.61
COc1ccc(-n2ncc3cnc(-c4cncc(C)n4)cc32)nc1N1CCCNC1=O [Compound 251, 1-[3-methoxy-6-[6-(6-methylpyrazin-2-yl)pyrazolo[4,3-c]pyridin-1-yl]-2-pyridyl]hexahydropyrimidin-2-one]	7.31	7.50	6.74
Cc1cncc(-c2cc3c(cn2)cnn3-c2cccc(N3CCCNC3=O)n2)n1 [Compound 252, 1-[6-[6-(6-methylpyrazin-2-yl)pyrazolo[4,3-c]pyridin-1-yl]-2-pyridyl]hexahydropyrimidin-2-one]	8.25	8.50	7.46
Cn1cc(-c2cc3c(cn2)cnn3-c2cccc(N3CC(O)C3)n2)cn1 [Compound 253, 1-(6-(6-(1-Methyl-1H-pyrazol-4-yl)-1H-pyrazolo[4,3-c]pyridin-1-yl)pyridin-2-yl)azetidin-3-ol]	8.60	8.75	7.35
Cn1cc(-c2cc3c(cn2)cnn3-c2cn(C)c(=O)c(N3CCNCC(O)C3)n2)cn1 (stereo not drawn) [Compound 254, 3-(6-Hydroxy-1,4-diazepan-1-yl)-1-methyl-5-(6-(1-methyl-1H-pyrazol-4-yl)-1H-pyrazolo[4,3-c]pyridin-1-yl)pyrazin-2(1H)-one]	7.51	8.20	6.14
OC1CN(c2cccc(-n3ncc4cnc(-c5cnn(CC(F)(F)F)c5)cc43)n2)C1 [Compound 255, 1-(6-(6-(1-(2,2,2-Trifluoroethyl)-1H-pyrazol-4-yl)-1H-pyrazolo[4,3-c]pyridin-1-yl)pyridin-2-yl)azetidin-3-ol]	9.06	8.80	8.02
Cn1cc(-c2cc3c(cn2)cnn3-c2cccc(N3CC(CN)C3)n2)cn1 [Compound 256, (1-(6-(6-(1-Methyl-1H-pyrazol-4-yl)-1H-pyrazolo[4,3-c]pyridin-1-yl)pyridin-2-yl)azetidin-3-yl)methanamine]	8.25	8.69	7.08
Cn1cc(-c2cc3c(cn2)cnn3-c2cccc(N3CC(N)C3)n2)cn1 [Compound 257, 1-(6-(6-(1-Methyl-1H-pyrazol-4-yl)-1H-pyrazolo[4,3-c]pyridin-1-yl)pyridin-2-yl)azetidin-3-amine]	9.11	9.29	7.63
NC1CN(c2cccc(-n3ncc4cnc(-c5cnn(CC(F)(F)F)c5)cc43)n2)C1 [Compound 258, 1-(6-(6-(1-(2,2,2-Trifluoroethyl)-1H-pyrazol-4-yl)-1H-pyrazolo[4,3-c]pyridin-1-yl)pyridin-2-yl)azetidin-3-amine]	9.29	8.94	8.09
CO[C@@]1(C)CNCCN(c2cccc(-n3ncc4cnc(-c5cnn(CC(F)(F)F)c5)cc43)n2)C1 [Compound 261, (S)-1-(6-(6-Methoxy-6-methyl-1,4-diazepan-1-yl)pyridin-2-yl)-6-(1-(2,2,2-trifluoroethyl)-1H-pyrazol-4-yl)-1H-pyrazolo[4,3-c]pyridine]	9.12	8.56	7.78
NCC1CN(c2cccc(-n3ncc4cnc(-c5cnn(CC(F)(F)F)c5)cc43)n2)C1 [Compound 262, (1-(6-(6-(1-(2,2,2-Trifluoroethyl)-1H-pyrazol-4-yl)-1H-pyrazolo[4,3-c]pyridin-1-yl)pyridin-2-yl)azetidin-3-yl)methanamine]	8.91	8.74	7.90
CO[C@]1(C)CNCCN(c2cccc(-n3ncc4cnc(-c5cnn(CC(F)(F)F)c5)cc43)n2)C1 [Compound 264, (R)-1-(6-(6-Methoxy-6-methyl-1,4-diazepan-1-yl)pyridin-2-yl)-6-(1-(2,2,2-trifluoroethyl)-1H-pyrazol-4-yl)-1H-pyrazolo[4,3-c]pyridine]	8.53	8.20	7.24
Cc1cncc(-c2cc3c(cn2)cnn3-c2cccc(C3CNCCC3O)n2)n1 (stereo not drawn) [Compound 265, 3-[6-[6-(6-methylpyrazin-2-yl)pyrazolo[4,3-c]pyridin-1-yl]-2-pyridyl]piperidin-4-ol]	9.03	9.69	8.06
Cn1cc(-c2cc3c(cn2)cnn3-c2cccc(N3CC4(CCCCN4)C3)n2)cn1 [Compound 266, 1-(6-(2,5-Diazaspiro[3.5]nonan-2-yl)pyridin-2-yl)-6-(1-methyl-1H-pyrazol-4-yl)-1H-pyrazolo[4,3-c]pyridine]	8.96	8.92	7.53
FC(F)(F)Cn1cc(-c2cc3c(cn2)cnn3-c2cccc(N3CC4(CNC4)C3)n2)cn1 [Compound 267, 1-(6-(2,6-Diazaspiro[3.3]heptan-2-yl)pyridin-2-yl)-6-(1-(2,2,2-trifluoroethyl)-1H-pyrazol-4-yl)-1H-pyrazolo[4,3-c]pyridine]	8.42	8.22	7.52
FC(F)(F)Cn1cc(-c2cc3c(cn2)cnn3-c2cccc(N3CC4(CCCCN4)C3)n2)cn1 [Compound 269, 1-(6-(2,5-Diazaspiro[3.5]nonan-2-yl)pyridin-2-yl)-6-(1-(2,2,2-trifluoroethyl)-1H-pyrazol-4-yl)-1H-pyrazolo[4,3-c]pyridine]	7.80	7.57	6.71
Cn1cc(-c2cc3c(cn2)cnn3-c2cccc(N3CC(O)(CN)C3)n2)cn1 [Compound 270, 3-(Aminomethyl)-1-(6-(6-(1-methyl-1H-pyrazol-4-yl)-1H-pyrazolo[4,3-c]pyridin-1-yl)pyridin-2-yl)azetidin-3-ol]	8.97	9.44	7.69
Clc1cncc(-c2cc3c(cn2)cnn3-c2cccc(N3CCNCC3)n2)n1 [Compound 275, 6-(6-Chloropyrazin-2-yl)-1-(6-(piperazin-1-yl)pyridin-2-yl)-1H-pyrazolo[4,3-c]pyridine dihydrochloride]	9.14	9.57	8.24
